This passage reports Km results from publication PMC10231375, “HDR, the last enzyme in the MEP pathway, differently regulates isoprenoid biosynthesis in two woody plants” (Plant Physiology, 2023).

In one assay the test system is T1, PaHDR2.
T1 construct: gene HDR2; plastid transit peptide removed (borders only in supplemental primers); E. coli BL21-AI; anaerobic glutathione column; [4Fe-4S] enzyme
The assay can be described thus: LC-MS/MS of DMADP + IDP, initial velocities, Lineweaver-Burk. In kind it is biochemical, Picea abies. The following applies: anaerobic; 1 mM methyl viologen, 3 mM sodium dithionite, MgCl2; pH 6.5; 30 °C or 35 °C; text calls PaHDR1 the lower-affinity enzyme, against the printed order of Km values; Figure 3 legend.

The test system of another assay is T2, PaHDR1.
T2 construct: gene HDR1; plastid transit peptide removed (borders only in supplemental primers); E. coli BL21-AI; anaerobic glutathione column; [4Fe-4S] enzyme
The description is as above. The settings on record: anaerobic; 1 mM methyl viologen, 3 mM sodium dithionite, MgCl2; pH 6.5; 30 °C or 35 °C. The class given is biochemical, Picea abies.

Usually Km stands for the concentration of substrate that gives half-maximal velocity.

As to `C/C(=C\COP(=O)(O)OP(=O)(O)O)CO` [HMBDP, (E)-4-hydroxy-3-methylbut-2-enyl diphosphate], the Km amounted to 21.2 µM in the assay with PaHDR2 and 15.9 µM with PaHDR1.
